Laboratory results from patent US12318487B2, “Solid tablet dosage form of ridinilazole” (c/o Summit (Oxford) Limited, priority 2021, dated 2025).
One block for each molecule: values may come before it.

Columns and labels:
[1] = tested on: Clostridioides difficile infection (CDI); conditions: Phase 2 trial, CDI recurrence; cited from earlier work
[2] = Crystal agglomerate particle sizing by laser diffraction (Malvern dry dispersion); assay type: physicochemical
Description: This was carried out by laser diffraction using a Malvern 2000 dry disperser. The settings used for sizing are set out below: [table] Sample preparation—Triplicate Invert sample jar or vial 10 times. Weigh approximately 2 g of sample and transfer to the sample tray. Evenly disperse sample in sample tray.

[3] = BCS classification and solubility of drug substance; assay type: physicochemical; conditions: across physiologically relevant pH
Text: Ridinilazole is a BCS class IV, orally administered and locally acting (lower intestines) GI antibiotic with minimal systemic exposure and very low solubility across physiologically relevant pH. BCS class IV drugs are known to present particular formulation challenges, especially in the case of oral formulations (see e.g. Ghadi and Dand (2017) BCS class IV drugs: Highly notorious candidates for formulation development Journal of Controlled Release, 248: 71-95).

[4] = XRPD limit test for crystal form conversion (Forms D and N) in packaged tablet; assay type: physicochemical; conditions: proposed storage condition, proposed commercial packaging
Text: The stability of the ridinilazole crystal form within the tablet as packaged in the intended commercial packaging configurations. Assessments have been made using a validated discriminatory X-ray powder diffraction (XRPD) method developed as a limit test for detecting Forms D and N within the drug product.

[5] = Table 5, input drug substance at limits of specification, listed as 4
[6] = Table 6, micronized ridinilazole tetrahydrate, additional studies, listed as 4
[7] = Table 6, micronized ridinilazole tetrahydrate, additional studies, listed as 5
[8] = Table 5, input drug substance at limits of specification, listed as 2
[9] = Table 6, micronized ridinilazole tetrahydrate, additional studies, listed as 2
[10] = Table 5, input drug substance at limits of specification, listed as 1
[11] = Table 6, micronized ridinilazole tetrahydrate, additional studies, listed as 1
[12] = Table 5, input drug substance at limits of specification, listed as 3
[13] = Table 6, micronized ridinilazole tetrahydrate, additional studies, listed as 3

Structure (SMILES): CN[C@H](CC(C)C)C(=O)N[C@H]1C(=O)N[C@@H](CC(N)=O)C(=O)N[C@H]2C(=O)N[C@H]3C(=O)N[C@H](C(=O)N[C@H](C(=O)O)c4cc(O)cc(O)c4-c4cc3ccc4O)[C@H](O)c3ccc(c(Cl)c3)Oc3cc2cc(c3O[C@@H]2O[C@H](CO)[C@@H](O)[C@H](O)[C@H]2O[C@H]2C[C@](C)(N)[C@H](O)[C@H](C)O2)Oc2ccc(cc2Cl)[C@H]1O [vancomycin, reference compound]
rates of recurrent disease [1]: 34.8%

Structure (SMILES): O.O.O.O.c1cc(-c2nc3ccc(-c4ccc5nc(-c6ccncc6)[nH]c5c4)cc3[nH]2)ccn1 [Batch 4, ridinilazole tetrahydrate]
D10 [2, 5]: 1 μm | D50 [2, 5]: 3 μm | D90 [2, 5]: 10 μm | D10 [2, 6]: 1.5 μm | D50 [2, 6]: 6 μm | D90 [2, 6]: 13 μm

Structure (SMILES): O.O.O.O.c1cc(-c2nc3ccc(-c4ccc5nc(-c6ccncc6)[nH]c5c4)cc3[nH]2)ccn1 [Batch 5, ridinilazole tetrahydrate]
D10 [2, 7]: 2.0 μm | D50 [2, 7]: 7 μm | D90 [2, 7]: 14 μm

Structure (SMILES): O.O.O.O.c1cc(-c2nc3ccc(-c4ccc5nc(-c6ccncc6)[nH]c5c4)cc3[nH]2)ccn1 [Batch 2, ridinilazole tetrahydrate]
D10 [2, 8]: 1 μm | D50 [2, 8]: 5 μm | D90 [2, 8]: 11 μm | D10 [2, 9]: 1.1 μm | D50 [2, 9]: 5 μm | D90 [2, 9]: 11 μm

Structure (SMILES): c1cc(-c2nc3ccc(-c4ccc5nc(-c6ccncc6)[nH]c5c4)cc3[nH]2)ccn1 [ridinilazole, 2,2′-di(pyridin-4-yl)-1H,1′H-5,5′-bibenzo[d]imidazole]
rates of recurrent disease [1]: 14.3% | solubility [3]: very low

Structure (SMILES): O.O.O.O.c1cc(-c2nc3ccc(-c4ccc5nc(-c6ccncc6)[nH]c5c4)cc3[nH]2)ccn1 [Batch 1, ridinilazole tetrahydrate]
D10 [2, 10]: 2 μm | D50 [2, 10]: 7 μm | D90 [2, 10]: 20 μm | D10 [2, 11]: 1.5 μm | D50 [2, 11]: 6 μm | D90 [2, 11]: 14 μm

Structure (SMILES): O.O.O.O.c1cc(-c2nc3ccc(-c4ccc5nc(-c6ccncc6)[nH]c5c4)cc3[nH]2)ccn1 [Batch 3, ridinilazole tetrahydrate]
D10 [2, 12]: 1 μm | D50 [2, 12]: 5 μm | D90 [2, 12]: 11 μm | D10 [2, 13]: 1.7 μm | D50 [2, 13]: 7 μm | D90 [2, 13]: 14 μm

crystal form conversion within the tablet [4]: No form conversion is detected
Structure (SMILES): c1cc(-c2nc3cc(-c4ccc5[nH]c(-c6ccncc6)nc5c4)ccc3[nH]2)ccn1 [Form A, ridinilazole tetrahydrate]
